{"source": "paper PMC4126848", "about": "(Epilepsia, 2014)", "key": {"[1]": {"tested_on": "Scn2a^Q54 mice", "assay": "Cresyl Violet staining for hilar neuron loss in the dentate gyrus", "type": "in vivo, mouse", "conditions": "GS967 1.5 mg/kg/d from P21-P60; female mice"}, "[2]": {"tested_on": "hippocampal pyramidal neurons isolated from Scn2a^Q54 mice", "type": "cell-based, mouse", "conditions": "1 µM; membrane potential clamped to −80 mV"}, "[3]": {"tested_on": "hippocampal pyramidal neurons isolated from Scn2a^Q54 mice", "type": "cell-based, mouse", "conditions": "1 µM"}, "[4]": {"tested_on": "Scn2a^Q54 mice", "assay": "Tolerability observations in mice", "type": "in vivo, mouse", "conditions": "phenytoin 30 mg/kg i.p.; GS967 in chow"}, "[5]": {"tested_on": "cardiac ion channels and several other molecular targets (more than 600 studied targets)", "conditions": "1 µM; cited from earlier work"}, "[6]": {"tested_on": "Scn2a^Q54 mice", "assay": "Survival analysis of Scn2a^Q54 mice", "type": "in vivo, mouse", "conditions": "GS967 chow 1.5 mg/kg/d from postnatal day 21; control 20%"}, "[7]": {"assay": "Plasma and brain concentrations and pharmacokinetics in mice", "conditions": "for concentration at 30 min: male, Scn2a^Q54, mouse, intraperitoneal, 40 mg/kg"}, "[8]": {"tested_on": "Scn2a^Q54 mice", "assay": "Anticonvulsant activity: behavioral seizure frequency in Scn2a^Q54 mice", "type": "in vivo, mouse", "conditions": "for reduction in seizure frequency: Scn2a^Q54 mice"}, "[9]": {"tested_on": "C57BL/6J male mice", "assay": "Maximal electroshock-induced seizures", "type": "in vivo, mouse", "conditions": "oral gavage two hours prior to testing; probit analysis"}, "[10]": {"conditions": "mouse, in vivo"}}, "note": "Values joined by “and” are separate entries in the source; they are usually repeats but may differ in a detail not shown here. Identical values can stand only once. Like-named read-outs stand apart in the source and are kept apart here."}
{"smiles": "FC(F)(F)Oc1ccc(-c2ccc3nnc(C(F)(F)F)n3c2)cc1", "note": "[GS967]", "values": [{"measurement": "hilar neuron loss (Cresyl Violet, qualitative)", "setting": "[1]", "value": "no overt hilar neuron loss"}, {"measurement": "reduction of spontaneous action potential firing frequency", "setting": "[2]", "value": "98.8 ± 0.1", "unit": "%"}, {"measurement": "persistent current as % of peak current amplitude", "setting": "[3]; control 1.2 ± 0.4%", "value": "0.1 ± 0.1", "unit": "%"}, {"measurement": "peak current density", "setting": "[3]; not significantly different from control", "value": "172.3 ± 46.2", "unit": "pA/pF"}, {"measurement": "sedation", "setting": "[4]", "value": "no sedation was observed"}, {"measurement": "cross reactivity with cardiac ion channels and other molecular targets", "setting": "[5]", "value": "no cross reactivity"}, {"measurement": "mice alive at 12 weeks", "setting": "[6]", "value": 90, "unit": "%"}, {"measurement": "[Plasma]", "setting": "[7]; GS967 1.5 mg/kg/day orally in chow, immediately after post-treatment period", "value": "0.6 ± 0.1", "unit": "µM"}, {"measurement": "brain penetration", "setting": "[7]; mice", "value": "effectively cross the blood-brain barrier"}, {"measurement": "rate of elimination", "setting": "[7]; mouse, in vivo", "value": "slower rate of elimination than ranolazine"}, {"measurement": "reduction in seizure frequency", "setting": "[8]; GS967 0.375 mg/kg/d orally in chow", "value": 50, "unit": "%"}, {"measurement": "reduction in seizure frequency", "setting": "[8]; GS967 1.5 mg/kg/d orally in chow, two days of treatment", "value": "greater than 90%"}, {"measurement": "% Change in Seizure Frequency", "setting": "[8]; GS967 1.5 mg/kg/day orally in chow, male Scn2a^Q54 mice", "value": "−92 ± 4", "unit": "%"}, {"measurement": "ED50 for protection against MES-induced tonic hindlimb extension", "setting": "[9]", "value": 0.1, "unit": "mg/kg"}]}
{"smiles": "O=C1NC(=O)C(c2ccccc2)(c2ccccc2)N1", "note": "[Phenytoin, reference compound]", "values": [{"measurement": "reduction of spontaneous action potential firing frequency", "setting": "[2]", "value": "36.7 ± 10.1", "unit": "%"}, {"measurement": "sedation", "setting": "[4]", "value": "exhibited sedation characterized by lack of ambulation"}]}
{"smiles": "COc1ccccc1OCC(O)CN1CCN(CC(=O)Nc2c(C)cccc2C)CC1", "note": "(stereo not drawn) [Ranolazine, reference compound]", "values": [{"measurement": "brain penetration", "setting": "[10]", "value": "low brain penetration"}, {"measurement": "concentration at 30 min", "setting": "[7]; plasma", "value": "19.3 ± 0.8", "unit": "µM"}, {"measurement": "concentration at 30 min", "setting": "[7]; whole brain", "value": "4.9 ± 0.1", "unit": "µM"}, {"measurement": "half-life", "setting": "[7]; mouse, plasma", "value": "~15", "unit": "min"}, {"measurement": "reduction in seizure frequency", "setting": "[8]; ranolazine 40 mg/kg i.p.", "value": "~ 50% and 48%"}]}
